Test results published in patent US20130204033A1, “ANTIPROLIFERATIVE COMPOUNDS, CONJUGATES THEREOF, METHODS THEREFOR, AND USES THEREOF” (Medarex, Inc., priority 2009, published 2013).
Like-named read-outs stand apart in the source and are kept apart here.

How the values were obtained:
Assay type in all cases: cell-based, human
U-87 MG [1] = experiment: ATP luminescence proliferation assay, U-87 MG
Experimental: (§1) This example generally describes the procedures used to assay the antiproliferative activity of compounds of this invention or their conjugates. Human tumor cell lines were obtained from the American Type Culture Collection (ATCC), P.O. Box 1549, Manassas, Va. 20108, USA, and cultured according to instruction from the ATCC. Cells were seeded at 1.0×10^3 or 1.0×10^4 cells/well in 96-well plates for 3 h for ATP assays or ^3H thymidine assays, respectively. 1:3 serial dilutions of free (unconjugated) compounds or their conjugates were added to the wells. Plates were allowed to incubate for 24 to 72 h. The ^3H thymidine plates were pulsed with 1.0 μCi of ^3H-thymidine per well for the last 24 hours of the total incubation period, harvested, and read on a Top Count Scintillation Counter (Packard Instruments, Meriden, Conn.). ATP levels in the ATP plates were measured using the […]-GLO® Luminescent Cell Viability kit following the manufacturer's manual and read on a GLOMAX® 20/20 luminometer (both from Promega, Madison, Wis., USA). The EC50 values—the concentration at which an agent inhibits or reduces cell proliferation by 50% —were determined using PRISM™ software, version 4.0 (GraphPad Software, La Jolla, Calif., USA).
(§2) Using the ^3H thymidine or the ATP luminescence assay, or both, the activities of compounds of this invention were assayed against the following cancer cell lines: HCT-15 (colorectal cancer, multi-drug resistant (MDR)); Hep3B (liver cancer); LNCaP (prostate cancer, androgen receptor positive (AR^+)); MDA-MB-231 (breast cancer, estrogen receptor, progesterone receptor, and Her2 negative (triple negative)); A2058 (melanoma); U-87 MG (glioblastoma); NCI-H460 (NSCLC); A549 (NSCLC); HPAC (pancreatic cancer, primary); PC3 (prostate cancer, AR); BT474 (breast cancer, Her2 highly positive (Her2hi)); SKOV3 (ovarian cancer, Her2hi); 786-O (renal cancer); UO-31 (renal cancer, MDR); NCI-H740 (SCLC); DMS53 (SCLC); SK-BR3 (breast cancer, Her2hi); ZR-75 (breast cancer, estrogen receptor positive); OVCAR3 (ovarian cancer); HL-60 (APL); OVCAR8/Adr (ovarian cancer, MDR); CEM-Cl (ALL); Nomo-1 (AML); RPMI-8226 (MM)); Raji (lymphoma); SW-480 (colorectal cancer, metastatic); SW-620 (colorectal cancer); and H226 (lung cancer). (Not all compounds were assayed against all cell lines.)
(§3) Table 3 provides the data for the ATP luminescence proliferation assays, with an incubation period of 48, 72, or 96 h, as noted.

UO-31 [2] = experiment: ATP luminescence proliferation assay, UO-31
Experimental: as §1, §2, §3

CEM-C1 = experiment: 3H thymidine proliferation assay, CEM-C1
Experimental: as §1, §2
(§4) Table 2 provides the data for proliferation assays using the ^3H thymidine method, with an incubation period of 72 h.

UO-31 [3] = experiment: 3H thymidine proliferation assay, UO-31
Experimental: as §1, §2, §4

PC3 = experiment: ATP luminescence proliferation assay, PC3
Experimental: as §1, §2, §3

HL-60 [4] = experiment: ATP luminescence proliferation assay, HL-60
Procedure, shortened: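 Cells seeded at 1.0×10^3 cells/well for 3 h, then exposed to 1:3 serial dilutions of free compounds or conjugates for 48, 72 or 96 h, as noted. ATP measured by luminescent cell viability kit; EC50 taken as concentration reducing proliferation by 50%.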

BT474 = experiment: ATP luminescence proliferation assay, BT474
Experimental: as §1, §2, §3

LNCaP = experiment: 3H thymidine proliferation assay, LNCaP
Experimental: as §1, §2, §4

HL-60 [5] = experiment: 3H thymidine proliferation assay, HL-60
Experimental: as §1, §2, §4

ZR-75 = experiment: 3H thymidine proliferation assay, ZR-75
Experimental: as §1, §2, §4

Nomo-1 = experiment: 3H thymidine proliferation assay, Nomo-1
Experimental: as §1, §2, §4

CEM-Cl = experiment: ATP luminescence proliferation assay, CEM-C1
Experimental: as §1, §2, §3

SW-480 = experiment: ATP luminescence proliferation assay, SW-480
Experimental: as §1, §2, §3

SKOV3 = experiment: ATP luminescence proliferation assay, SKOV3
Experimental: as §1, §2, §3

U-87 MG [6] = experiment: 3H thymidine proliferation assay, U-87 MG
Experimental: as §1, §2, §4

Hep3B = experiment: 3H thymidine proliferation assay, Hep3B
Experimental: as §1, §2, §4

DMS53 = experiment: 3H thymidine proliferation assay, DMS53
Experimental: as §1, §2, §4

H740 = experiment: 3H thymidine proliferation assay, H740
Experimental: as §1, §2, §4

CCC[C@H](NC(=O)[C@H](Cc1ccccc1)NC(=O)c1csc([C@@H](C[C@H](C(C)C)N(C)C(=O)[C@@H](NC(=O)[C@H]2CCCCN2C)[C@@H](C)CC)OC)n1)C(=O)OC [Compound 19]
EC50 (U-87 MG [1]; ATP luminescence, 72 h incubation, read-out: EC50 U-87 MG (72 h)): > 100 nM | EC50 (UO-31 [2]; ATP luminescence, UO-31, 48 h incubation, read-out: EC50 UO-31 (48 h)): > 100 nM | EC50 (CEM-C1; 3H thymidine method, 72 h incubation, read-out: EC50, CEM-C1): 22 nM | EC50 (UO-31 [3]; 3H thymidine method, 72 h incubation, read-out: EC50, UO-31): > 100 nM | EC50 (PC3; ATP luminescence, PC3, 48 h incubation, read-out: EC50 PC3 (48 h)): ~33 nM | EC50 (HL-60 [4]; ATP luminescence, HL-60, 72 h incubation, read-out: EC50 HL-60 (72 h)): 7.7 nM | EC50 (BT474; ATP luminescence, BT474, 48 h incubation, read-out: EC50 BT474 (48 h)): 8.8 nM | EC50 (LNCaP; 3H thymidine method, 72 h incubation, read-out: EC50, LNCaP): > 100 nM | EC50 (HL-60 [5]; 3H thymidine method, 72 h incubation, read-out: EC50, HL-60): 37 nM | EC50 (ZR-75; 3H thymidine method, 72 h incubation, read-out: EC50, ZR-75): 34 nM | EC50 (Nomo-1; 3H thymidine method, 72 h incubation, read-out: EC50, Nomo-1): 1.3 nM | EC50 (CEM-Cl; ATP luminescence, CEM-C1, 72 h incubation, read-out: EC50 CEM-C1 (72 h)): 11 nM | EC50 (SW-480; ATP luminescence, SW480, 96 h incubation, read-out: EC50 SW480 (96 h)): 52 nM | EC50 (SKOV3; ATP luminescence, SKOV3, 72 h incubation, read-out: EC50 SKOV3 (72 h)): 15 nM | EC50 (U-87 MG [6]; 3H thymidine method, 72 h incubation, read-out: EC50, U-87 MG): > 100 nM | EC50 (Hep3B; 3H thymidine method, 72 h incubation, read-out: EC50, Hep3B): 52 nM | EC50 (DMS53; 3H thymidine method, 72 h incubation, read-out: EC50, DMS53): > 100 nM | EC50 (H740; 3H thymidine method, 72 h incubation, read-out: EC50, H740): 3.8 nM

CC[C@H](C)[C@H](NC(=O)[C@H]1CCCCN1C)C(=O)N(C)[C@H](C[C@@H](OC)c1nc(C(=O)N[C@@H](Cc2ccccc2)C(=O)N[C@@H](C)C(=O)OC)cs1)C(C)C [Compound 24]
EC50 (U-87 MG [1]; Homo sapiens, 72 h, read-out: EC50 U-87 MG (72 h), ATP luminescence, U-87 MG, 72 h incubation): 18 nM | EC50 (UO-31 [2]; Homo sapiens, UO-31, 48 h, read-out: EC50 UO-31 (48 h), ATP luminescence, UO-31, 48 h incubation): 13 nM | EC50 (CEM-C1; Homo sapiens, CEM/C1, read-out: EC50, CEM-C1, 3H thymidine method, 72 h incubation): 13 nM | EC50 (UO-31 [3]; Homo sapiens, UO-31, read-out: EC50, UO-31, 3H thymidine method, 72 h incubation): > 100 nM | EC50 (PC3; Homo sapiens, PC-3, 48 h, read-out: EC50 PC3 (48 h), ATP luminescence, PC3, 48 h incubation): 13 nM | EC50 (HL-60 [4]; Homo sapiens, HL-60, 72 h, read-out: EC50 HL-60 (72 h), ATP luminescence, HL-60, 72 h incubation): 6.4 nM | EC50 (BT474; Homo sapiens, BT-474, 48 h, read-out: EC50 BT474 (48 h), ATP luminescence, BT474, 48 h incubation): 4.6 nM | EC50 (LNCaP; Homo sapiens, LNCaP, read-out: EC50, LNCaP, 3H thymidine method, 72 h incubation): 76 nM | EC50 (HL-60 [5]; Homo sapiens, HL-60, read-out: EC50, HL-60, 3H thymidine method, 72 h incubation): 6.9 nM | EC50 (ZR-75; Homo sapiens, ZR75, read-out: EC50, ZR-75, 3H thymidine method, 72 h incubation): 3.6 nM | EC50 (Nomo-1; Homo sapiens, NOMO-1, read-out: EC50, Nomo-1, 3H thymidine method, 72 h incubation): 1.1 nM | EC50 (CEM-Cl; Homo sapiens, CEM/C1, 72 h, read-out: EC50 CEM-C1 (72 h), ATP luminescence, CEM-C1, 72 h incubation): 8.7 nM | EC50 (SW-480; Homo sapiens, SW480, 96 h, read-out: EC50 SW480 (96 h), ATP luminescence, SW480, 96 h incubation): 42 nM | EC50 (SKOV3; Homo sapiens, SK-OV-3, 72 h, read-out: EC50 SKOV3 (72 h), ATP luminescence, SKOV3, 72 h incubation): 13 nM | EC50 (U-87 MG [6]; Homo sapiens, U-87 MG, read-out: EC50, U-87 MG, 3H thymidine method, 72 h incubation): 18 nM | EC50 (Hep3B; Homo sapiens, Hep3B, read-out: EC50, Hep3B, 3H thymidine method, 72 h incubation): 32 nM | EC50 (DMS53; Homo sapiens, DMS-53, read-out: EC50, DMS53, 3H thymidine method, 72 h incubation): > 100 nM | EC50 (H740; Homo sapiens, read-out: EC50, H740, 3H thymidine method, 72 h incubation): 51 nM
